# Patent US10662164B2, “Non-beta lactam antibiotics” (University of Notre Dame du Lac, priority 2014, dated 2020)
# Where two headings read alike, the source gives them in different places.
# Experiments:
# Experiment in all cases: MIC determination
# [1] = tested on: S. aureus ATCC 29213; format: cell-based, Staphylococcus aureus; settings: for MIC: Staphylococcus aureus, read-out: MIC
# [2] = tested on: B. cereus ATCC 13061; format: cell-based; settings: Bacillus cereus, ATCC13061; Tables 1 and 5; read-out: MIC
# Source text: (§1) The ESKAPE organisms (E. faecium NCTC (ATCC 19734), S. aureus ATCC 29213, K. pneumonia ATCC 700603, A. baumannii ATCC 17961, P. aeruginosa ATCC 17853, E. aerogenes ATCC 35029) and E. coli ATCC 25922) in the initial screen, S. aureus ATCC 27660, S. epidermis ATCC 35547, S. haemolyticus ATCC 29970, S. oralis ATCC 9811, S. pyogenes ATCC 49399, B. cereus ATCC 13061, B. licheniformis ATCC 12759, and E. faecalis ATCC 29212 were purchased from the American Type Culture Collection (Manassas, Va., USA). S. aureus strains NRS100, NRS119, NRS120, VRS1, and VRS2 were obtained from the Network on Antimicrobial Resistance in Staphylococcus aureus (Chantilly, Va., USA). E. faecalis strains 201 and 99, and E. faecium strains 119-39A and 106 were collected from Wayne State University School of Medicine.
# (§2) The procedure for MIC determination was the same as previously reported (Tran et al., Am. J. Clin. Dermatol. 2015; doi 10.1007/S40257-015-0125-9).
# [3] = tested on: B. licheniformis ATCC 12759; format: cell-based; settings: Bacillus licheniformis, ATCC12759; Tables 1 and 5; read-out: MIC
# Source text: as §1, §2
# [4] = tested on: E. faecalis 201 (Van S); format: cell-based; settings: Enterococcus faecalis; vancomycin-susceptible clinical isolate; Tables 1 and 5; read-out: MIC
# Source text: as §1, §2
# [5] = tested on: E. faecalis 99 (Van R); format: cell-based; settings: Enterococcus faecalis; vancomycin-resistant clinical isolate; Tables 1 and 5
# Source text: as §1, §2
# [6] = tested on: E. faecalis ATCC 29212; format: cell-based; settings: Enterococcus faecalis, ATCC29212; quality-control strain; Tables 1 and 5; read-out: MIC
# Source text: as §1, §2
# [7] = tested on: E. faecium 106 (Van R); format: cell-based; settings: Enterococcus faecium; vancomycin-resistant clinical isolate; Tables 1 and 5; read-out: MIC
# Source text: as §1, §2
# [8] = tested on: E. faecium 119-39A (Van S); format: cell-based; settings: Enterococcus faecium; vancomycin-susceptible clinical isolate; Tables 1 and 5; read-out: MIC
# Source text: as §1, §2
# [9] = tested on: S. aureus ATCC 27660; format: cell-based; settings: Staphylococcus aureus, ATCC27660; mecA positive, resistant to methicillin, oxacillin, tetracycline; Tables 1 and 5; read-out: MIC
# Source text: as §1, §2
# [10] = tested on: S. aureus NRS100 (COL); format: cell-based; settings: Staphylococcus aureus, mecA positive, resistant to methicillin, oxacillin, tetracycline, Tables 1 and 5, read-out: MIC
# Source text: as §1, §2
# [11] = tested on: S. aureus NRS119; format: cell-based; settings: Staphylococcus aureus, mecA positive, linezolid-resistant, Tables 1 and 5, read-out: MIC
# Source text: as §1, §2
# [12] = tested on: S. aureus NRS120; format: cell-based; settings: Staphylococcus aureus, mecA positive, linezolid-resistant, Tables 1 and 5, read-out: MIC
# Source text: as §1, §2
# [13] = tested on: S. aureus VRS1; format: cell-based; settings: Staphylococcus aureus; vancomycin-resistant MRSA (vanA) isolate from Michigan; Tables 1 and 5; read-out: MIC
# Source text: as §1, §2
# [14] = tested on: S. aureus VRS2; format: cell-based; settings: Staphylococcus aureus; vancomycin-resistant MRSA (vanA) isolate from Pennsylvania; Tables 1 and 5; read-out: MIC
# Source text: as §1, §2
# [15] = tested on: S. epidermis ATCC 35547; format: cell-based; settings: Tables 1 and 5; read-out: MIC
# Source text: as §1, §2
# [16] = tested on: S. haemolyticus ATCC 29970; format: cell-based; settings: Staphylococcus haemolyticus, ATCC29970; Tables 1 and 5; read-out: MIC
# Source text: as §1, §2
# [17] = tested on: E. faecium C68; format: cell-based; settings: Enterococcus faecium, vancomycin-resistant clinical strain from Cleveland hospitals, Table 5
# Source text: as §2
# [18] = ATCC29213, S. aureus ATCC29213, second numbering, compounds of Scheme 6
# [19] = ATCC29213, quality-control, methicillin-susceptible strain, Tables 1 and 5
"MIC [1, 18] [µg/mL]","MIC [1, 19] [µg/mL]",MIC [2] [µg/mL],MIC [3] [µg/mL],MIC [4] [µg/mL],MIC [5] [µg/mL],MIC [6] [µg/mL],MIC [7] [µg/mL],MIC [8] [µg/mL],MIC [9] [µg/mL],MIC [10] [µg/mL],MIC [11] [µg/mL],MIC [12] [µg/mL],MIC [13] [µg/mL],MIC [14] [µg/mL],MIC [15] [µg/mL],MIC [17] [µg/mL],SMILES,MIC [16] [µg/mL],"antibacterial activity in words (SAR, C/D ring derivatives) ([1]; S. aureus ATCC29213, second numbering, compounds of Scheme 6)"
2,2,8,16,8,16,8,8,8,16,16,8,8,8,8,16,8,"Oc1ccc(-c2nc(-c3ccc(Oc4ccccc4)c(O)c3)no2)cc1 [Compound 51a, 5-(5-(4-hydroxyphenyl)-1,2,4-oxadiazol-3-yl)-2-phenoxyphenol]",8,–
2,2,4,2,4,4,4,4,4,8,8,4,4,2,2,4,4,"Oc1ccc(-c2nc(-c3ccc(Oc4ccccc4)cc3Cl)no2)cc1 [Compound 52a, 4-(3-(2-chloro-4-phenoxyphenyl)-1,2,4-oxadiazol-5-yl)phenol]",4,–
–,2,4,4,4,4,2,4,4,4,4,4,4,2,2,2,4,"[N-]=[N+]=Nc1cc(-c2noc(-c3ccc(O)cc3)n2)ccc1Oc1ccccc1 [Compound 53a, 4-(3-(3-azido-4-phenoxyphenyl)-1,2,4-oxadiazol-5-yl)phenol]",2,demonstrated activity
